In patent US20260263350A1, “COMPOSITIONS” (Estrenue Pty Ltd, priority 2022, published 2026):
Values joined by “and” are separate entries in the source; they are usually repeats but may differ in a detail not shown here. Equal values may be shown once.

Settings: one skin biopsy 0.28 cm^2, 90 minutes

CPM (10 μL/cm^2 in water-ethanol on tape stripped skin): 1365 and 940 and 869
DPM (counting efficiency 25%, tape stripped skin): 5337 and 3760 and 3476
SMILES: C[C@]12CC[C@@H]3c4ccc(O)[14cH]c4CC[C@H]3[C@@H]1CC[C@@H]2O [E2-14C, Estradiol, 17 β-[4-^14C]]
Total E2 (ng/Biopsy) (tape stripped skin): 11.9 ng/Biopsy and 8.4 ng/Biopsy and 7.7 ng/Biopsy
ng/Biopsy (E2-14C) (tape stripped skin): 11.9 ng/Biopsy and 8.4 ng/Biopsy and 7.7 ng/Biopsy
μCi/Biopsy (tape stripped skin): 0.002402 μCi/Biopsy and 0.001692 μCi/Biopsy and 0.001564 μCi/Biopsy
